Source: patent US20030129677A1, “Diagnostic method for screening complement regulatory protein levels” (priority 2000, published 2003)

System: DAF (CD55) on MCF-7 breast cancer cells
Test: TNF-α modulation of DAF (CD55) on MCF-7 breast cancer cells (western blot, densitometry)
Type: cell-based
Conditions: MCF-7 cells, different concentrations of recombinant TNF-α for 18 hours
Description: Estrogen primed and unprimed MCF-7 cells were treated with different concentrations of recombinant TNF-α for 18 hours. Estrogen primed cells were treated overnight with 20 ng/ml β estradiol. DAF protein was extracted by lysis treatment of cells and quantitated, run on SDS-PAGE followed by western blot analysis using anti DAF antibody. Bands were visualized by ECL method (Amersham). DAF levels were quantitated densitometrically and expressed as densitometric units.

TNF-α was tested, and the “DAF (CD55) expression” value (estrogenized conditions (primed overnight with 20 ng/ml β estradiol), FIG. 5) was “upregulated CD55 in a dose dependent manner” and the “DAF (CD55) expression” value (nonestrogenized conditions) was “downregulated expression of CD55 in a dose dependent manner”.
